Test results from patent publication US7482342B2, “Indazolecarboxamide derivatives, preparation and use thereof as CDK1, CDK2 and CDK4 inhibitors” (sanofi-aventis, priority 2002, dated 2009).

Settings: prior art; cited from earlier work
In the case of `Cc1ccc(CNC(=O)c2n[nH]c3ccccc23)cc1` [N-(4-Methylbenzyl)-1H-indazole-3-carboxamide], the pharmacological activity is listed as “no pharmacological activity”.

Settings: not given
Molecule `O=C(NCCCn1ccnc1)c1n[nH]c2ccccc12` has a melting point of 154 to 155 °C.
Molecule `CCOC(=O)c1cccc(NC(=O)c2n[nH]c3ccccc23)c1` has a melting point of 187 to 188 °C.
`O=C(O)c1cccc(NC(=O)c2n[nH]c3ccccc23)c1` gave a melting point greater than 250 °C.
In the case of `O=C(Nc1ccncc1)c1n[nH]c2ccc([N+](=O)[O-])cc12`, the melting point is reported as greater than 260 °C.
For `O=C(Nc1ccncc1)c1n[nH]c2ccc(I)cc12`, the melting point was greater than 260 °C.
Molecule `O=C(Nc1ccc(Nc2ccccc2)cc1)c1n[nH]c2ccccc12` [Compound No. 4, N-(4-Phenylaminophenyl)-1H-indazole-3-carboxamide] has a melting point of 218 °C.
